EP4755888A1 (ILAb Co., Ltd., priority 2023, dated 2025)

Target: PD-1/PD-L1 (Homo sapiens, UniProt Q9NZQ7)
Experiment: TR-FRET PD-1/PD-L1 binding inhibition at the molecular level (free proteins)
Conditions: Tag1-PD-L1 and Tag2-PD-1 proteins, twelve concentrations from 200 nM, 2 hours at room temperature, read-out: FRET assay (IC50)
Summary of the method: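 HTRF read-out at 665/620 nm after 2 h at room temperature. Detection used anti-Tag1 Eu cryptate plus anti-Tag2 XL665 antibodies. Tagged PD-L1 and PD-1 proteins were pre-mixed with compound across twelve […] 1:2 dilutions starting at 200 nM.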

Sequence of PD-1/PD-L1 (Q9NZQ7 19-238 limits assumed): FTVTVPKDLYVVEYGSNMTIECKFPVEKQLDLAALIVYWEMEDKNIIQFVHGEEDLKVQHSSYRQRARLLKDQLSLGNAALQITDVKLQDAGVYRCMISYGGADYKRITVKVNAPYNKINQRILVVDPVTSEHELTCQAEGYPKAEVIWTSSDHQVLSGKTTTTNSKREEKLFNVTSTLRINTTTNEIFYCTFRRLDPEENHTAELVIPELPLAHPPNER

Row | IC50 | Compound
1 | < 10 nM | Cc1c(NC(=O)c2cc3n(n2)CCCC3O)cccc1-c1cccc(-c2nc3cc(CN4CC[C@@H](C(=O)O)C4)cc(C#N)c3o2)c1C (stereo partly drawn) [Compound 61, (3R)-1-((7-cyano-2-(3'-(4-hydroxy-4,5,6,7-tetrahydropyrazolo[1,5-a]pyridine-2-carboxamido)-2,2'-dimethyl-[1,1'-biphenyl]-3-yl)benzo[d]oxazol-5-yl)methyl)pyrrolidine-3-carboxylic acid]
2 | < 10 nM | CC(=O)NCCNC1CCCn2nc(C(=O)Nc3cccc(-c4cccc(-c5nc6cc(CN7CC[C@@H](C(=O)O)C7)cc(C#N)c6o5)c4C)c3C)cc21 (stereo partly drawn) [Compound 62, (3R)-1-((2-(3'-(4-((2-acetamidoethyl)amino)-4,5,6,7-tetrahydropyrazolo[1,5-a]pyridine-2-carboxamido)-2,2'-dimethyl-[1,1'-biphenyl]-3-yl)-7-cyanobenzo[d]oxazol-5-yl)methyl)pyrrolidine-3-carboxylic acid]
3 | < 10 nM | Cc1c(NC(=O)c2cc3n(n2)CCCC3NCCO)cccc1-c1cccc(-c2nc3cc(CN4CC[C@@H](C(=O)O)C4)cc(C#N)c3o2)c1C (stereo partly drawn) [Compound 64, (3R)-1-((7-cyano-2-(3'-(4-((2-hydroxyethyl)amino)-4,5,6,7-tetrahydropyrazolo[1,5-a]pyridine-2-carboxamido)-2,2'-dimethyl-[1,1'-biphenyl]-3-yl)benzo[d]oxazol-5-yl)methyl)pyrrolidine-3-carboxylic acid]
4 | < 10 nM | Cc1c(NC(=O)c2cc3n(n2)CCCC3NC[C@@H]2CCC(=O)N2)cccc1-c1cccc(-c2nc3cc(CN4CC[C@@H](C(=O)O)C4)cc(C#N)c3o2)c1C (stereo partly drawn) [Compound 65, (3R)-1-((7-cyano-2-(2,2'-dimethyl-3'-(4-((((S)-5-oxopyrrolidin-2-yl)methyl)amino)-4,5,6,7-tetrahydropyrazolo[1,5-a]pyridine-2-carboxamido)-[1,1'-biphenyl]-3-yl)benzo[d]oxazol-5-yl)methyl)pyrrolidine-3-carboxylic acid]
5 | < 10 nM | Cc1c(NC(=O)c2cc3n(n2)CCCC3NCC(=O)O)cccc1-c1cccc(-c2nc3cc(CN4CC[C@@H](C(=O)O)C4)cc(C#N)c3o2)c1C (stereo partly drawn) [Compound 66, (3R)-1-((2-(3'-(4-((carboxymethyl)amino)-4,5,6,7-tetrahydropyrazolo[1,5-a]pyridine-2-carboxamido)-2,2'-dimethyl-[1,1'-biphenyl]-3-yl)-7-cyanobenzo[d]oxazol-5-yl)methyl)pyrrolidine-3-carboxylic acid]
6 | < 10 nM | N#Cc1cc(CN2CC[C@@H](C(=O)O)C2)cc2nc(-c3cccc(-c4cccc(NC(=O)c5cc6n(n5)CCCC6O)c4Cl)c3Cl)oc12 (stereo partly drawn) [Compound 67, (3R)-1-((7-cyano-2-(2,2'-dichloro-3'-(4-hydroxy-4,5,6,7-tetrahydropyrazolo[1,5-a]pyridine-2-carboxamido)-[1,1'-biphenyl]-3-yl)benzo[d]oxazol-5-yl)methyl)pyrrolidine-3-carboxylic acid]
7 | < 10 nM | N#Cc1cc(CN2CC[C@@H](C(=O)O)C2)cc2nc(-c3cccc(-c4cccc(NC(=O)c5cc6n(n5)CCCC6NC[C@@H]5CCC(=O)N5)c4Cl)c3Cl)oc12 (stereo partly drawn) [Compound 68, (3R)-1-((7-cyano-2-(2,2'-dichloro-3'-(4-((((S)-5-oxopyrrolidin-2-yl)methyl)amino)-4,5,6,7-tetrahydropyrazolo[1,5-a]pyridine-2-carboxamido)-[1,1'-biphenyl]-3-yl)benzo[d]oxazol-5-yl)methyl)pyrrolidine-3-carboxylic acid]
8 | < 10 nM | CC(=O)NCCNC1CCCn2nc(C(=O)Nc3cccc(-c4cccc(-c5nc6cc(CN7CC[C@@H](C(=O)O)C7)cc(C#N)c6o5)c4Cl)c3Cl)cc21 (stereo partly drawn) [Compound 69, (3R)-1-((2-(3'-(4-((2-acetamidoethyl)amino)-4,5,6,7-tetrahydropyrazolo[1,5-a]pyridine-2-carboxamido)-2,2'-dichloro-[1,1'-biphenyl]-3-yl)-7-cyanobenzo[d]oxazol-5-yl)methyl)pyrrolidine-3-carboxylic acid]
9 | < 10 nM | N#Cc1cc(CN2CC[C@@H](C(=O)O)C2)cc2nc(-c3cccc(-c4cccc(NC(=O)c5cc6n(n5)CCCC6NCCO)c4Cl)c3Cl)oc12 (stereo partly drawn) [Compound 70, (3R)-1-((7-cyano-2-(2,2'-dichloro-3'-(4-((2-hydroxyethyl)amino)-4,5,6,7-tetrahydropyrazolo[1,5-a]pyridine-2-carboxamido)-[1,1'-biphenyl]-3-yl)benzo[d]oxazol-5-yl)methyl)pyrrolidine-3-carboxylic acid]
10 | < 10 nM | Cc1c(NC(=O)c2ccc(CNCCO)cn2)cccc1-c1cccc(NC(=O)c2cc3n(n2)CCCC3O)c1C (stereo not shown) [Compound 71, 4-hydroxy-N-(3'-(5-(((2-hydroxyethyl)amino)methyl)picolinamido)-2,2'-dimethyl-[1,1'-biphenyl]-3-yl)-4,5,6,7-tetrahydropyrazolo[1,5-a]pyridine-2-carboxamide]
11 | < 10 nM | CC(=O)NCCNC1CCCn2nc(C(=O)Nc3cccc(-c4cccc(NC(=O)c5ccc(CNCCO)cn5)c4C)c3C)cc21 (stereo not shown) [Compound 72, 4-((2-acetamidoethyl)amino)-N-(3'-(5-(((2-hydroxyethyl)amino)methyl)picolinamido)-2,2'-dimethyl-[1,1'-biphenyl]-3-yl)-4,5,6,7-tetrahydropyrazolo[1,5-a]pyridine-2-carboxamide]
12 | < 10 nM | Cc1c(NC(=O)c2ccc(CNCCO)cn2)cccc1-c1cccc(NC(=O)c2cc3n(n2)CCCC3N2CC[C@@H](O)C2)c1C (stereo partly drawn) [Compound 73, N-(3'-(5-(((2-hydroxyethyl)amino)methyl)picolinamido)-2,2'-dimethyl-[1,1'-biphenyl]-3-yl)-4-((R)-3-hydroxypyrrolidin-1-yl)-4,5,6,7-tetrahydropyrazolo[1,5-a]pyridine-2-carboxamide]
13 | < 10 nM | Cc1c(NC(=O)c2ccc(CNCCO)cn2)cccc1-c1cccc(NC(=O)c2cc3n(n2)CCCC3NCC2CCC(=O)N2)c1C (stereo not shown) [Compound 75, N-(3'-(5-(((2-hydroxyethyl)amino)methyl)picolinamido)-2,2'-dimethyl-[1,1'-biphenyl]-3-yl)-4-(((5-oxopyrrolidin-2-yl)methyl)amino)-4,5,6,7-tetrahydropyrazolo[1,5-a]pyridine-2-carboxamide]
14 | < 10 nM | Cc1c(NC(=O)c2ccc(CNCCO)cn2)cccc1-c1cccc(NC(=O)c2cc3n(n2)CCCC3NCC(=O)O)c1C (stereo not shown) [Compound 76, 2-((2-((3'-(5-(((2-hydroxyethyl)amino)methyl)picolinamido)-2,2'-dimethyl-[1,1'-biphenyl]-3-yl)carbamoyl)-4,5,6,7-tetrahydropyrazolo[1,5-a]pyridin-4-yl)amino)acetic acid]
15 | < 10 nM | Cc1c(NC(=O)c2ccc(CNCCO)cn2)cccc1-c1cccc(NC(=O)c2cc3n(n2)CCCC3N2CC[C@@H](C(=O)O)C2)c1C (stereo partly drawn) [Compound 77, (3R)-1-(2-((3'-(5-(((2-hydroxyethyl)amino)methyl)picolinamido)-2,2'-dimethyl-[1,1'-biphenyl]-3-yl)carbamoyl)-4,5,6,7-tetrahydropyrazolo[1,5-a]pyridin-4-yl)pyrrolidine-3-carboxylic acid]
16 | < 10 nM | Cc1c(NC(=O)c2ccc(CNCCO)cn2)cccc1-c1cccc(NC(=O)c2cc3n(n2)CCCC3N2CCC(O)CC2)c1C (stereo not shown) [Compound 78, N-(3'-(5-(((2-hydroxyethyl)amino)methyl)picolinamido)-2,2'-dimethyl-[1,1'-biphenyl]-3-yl)-4-(4-hydroxypiperidin-1-yl)-4,5,6,7-tetrahydropyrazolo[1,5-a]pyridine-2-carboxamide]
17 | < 10 nM | Cc1c(NC(=O)c2ccc(CNCCO)cn2)cccc1-c1cccc(NC(=O)c2cc3n(n2)CCCC3N2CCC(C(=O)O)CC2)c1C (stereo not shown) [Compound 79, 1-(2-((3'-(5-(((2-hydroxyethyl)amino)methyl)picolinamido)-2,2'-dimethyl-[1,1'-biphenyl]-3-yl)carbamoyl)-4,5,6,7-tetrahydropyrazolo[1,5-a]pyridin-4-yl)piperidine-4-carboxylic acid]
18 | < 10 nM | Cc1c(NC(=O)c2ccc(CNCCO)cn2)cccc1-c1cccc(NC(=O)c2cc3n(n2)CCCC3NC(C)(C)C(=O)O)c1C (stereo not shown) [Compound 80, 2-((2-((3'-(5-(((2-hydroxyethyl)amino)methyl)picolinamido)-2,2'-dimethyl-[1,1'-biphenyl]-3-yl)carbamoyl)-4,5,6,7-tetrahydropyrazolo[1,5-a]pyridin-4-yl)amino)-2-methylpropanoic acid]
19 | < 10 nM | O=C(Nc1cccc(-c2cccc(NC(=O)c3cc4n(n3)CCCC4O)c2Cl)c1Cl)c1ccc(CNCCO)cn1 (stereo not shown) [Compound 81, N-(2,2'-dichloro-3'-(5-(((2-hydroxyethyl)amino)methyl)picolinamido)-[1,1'-biphenyl]-3-yl)-4-hydroxy-4,5,6,7-tetrahydropyrazolo[1,5-a]pyridine-2-carboxamide]
20 | < 10 nM | CC(=O)NCCNC1CCCn2nc(C(=O)Nc3cccc(-c4cccc(NC(=O)c5ccc(CNCCO)cn5)c4Cl)c3Cl)cc21 (stereo not shown) [Compound 82, 4-((2-acetamidoethyl)amino)-N-(2,2'-dichloro-3'-(5-(((2-hydroxyethyl)amino)methyl)picolinamido)-[1,1'-biphenyl]-3-yl)-4,5,6,7-tetrahydropyrazolo[1,5-a]pyridine-2-carboxamide]
21 | < 10 nM | O=C(Nc1cccc(-c2cccc(NC(=O)c3cc4n(n3)CCCC4NCCO)c2Cl)c1Cl)c1ccc(CNCCO)cn1 (stereo not shown) [Compound 83, N-(2,2'-dichloro-3'-(5-(((2-hydroxyethyl)amino)methyl)picolinamido)-[1,1'-biphenyl]-3-yl)-4-((2-hydroxyethyl)amino)-4,5,6,7-tetrahydropyrazolo[1,5-a]pyridine-2-carboxamide]

Row | Compound | IC50
22 | Cc1c(NC(=O)c2ccc(CNCCO)cn2)cccc1-c1cccc(NC(=O)c2cc3n(n2)CCCC3NCCO)c1C (stereo not shown) [Compound 74] | < 10 nM
